# From PMC2630368 (The Journal of pharmacology and experimental therapeutics, 2008)
# Where two headings read alike, the source gives them in different places.
# Key:
# [1] = tested on: lens induced myopia in chick; test: Lens induced myopia; format: in vivo; details: for Axial expansion (interocular difference) / Myopia (refractive error, interocular difference): 350 nmol intravitreal daily, −15 D lens, 4.5 days, mean ± SD; for Axial expansion reduction / Myopia reduction: 350 nmol intravitreal, versus water injected control
# male Wistar rats = test: Morris Water Maze learning and memory in rats; format: in vivo, rat; details: for Behavior in pool, D1 / Behavior in pool, D2: grade 0-8; for Number to reach platform, D1 / Number to reach platform, D2: n=10
# male QS mice = test: General behavioral and acute toxicity tests in mice; format: in vivo; details: 1, 10 and 100 mg/kg ip; 0 min to 1 week after injection
# human ρ2 GABAC receptors = human ρ2 GABAC receptors (Homo sapiens, UniProt P28476); format: cell-based
# human ρ1 GABAC receptors = human ρ1 GABAC receptors (Homo sapiens, UniProt P24046); format: cell-based; details: for Mode of antagonism at ρ1 GABAC receptors: GABA dose response curve in presence of 40 μM cis or 30 μM trans; for Effect when applied alone at ρ1 GABAC receptors: applied alone (cis 40 μM, trans 30 μM)
# [2] = tested on: human α1β2γ2L GABAA receptors; test: Two-electrode voltage clamp on recombinant GABAA; format: cell-based; details: for Percentage inhibition of GABA response at GABAA(α1β2γ2L): compound 1 mM against an EC50 concentration of GABA (60 μM), n=3; for Response when applied alone (agonist effect) at GABAA(α1β2γ2L): compound 1 mM alone
# [3] = tested on: human GABAB(1b,2) receptors; test: Two-electrode voltage clamp on recombinant GABAB; format: cell-based; details: for Percentage inhibition of GABA response at GABAB(1b,2): compound 1 mM against an EC50 concentration of GABA (3 μM), GIRK1 and GIRK4, n=3; for Response when applied alone (agonist effect) at GABAB(1b,2): compound 1 mM alone
# [4] = tested on: native GABAC receptor on rat retinal bipolar cells; test: Whole-cell patch-clamp on dissociated rat retinal bipolar cells; format: cell-based; details: GABA 10 μM, bicuculline 100 μM
# ρ1 GABAC receptors = details: ref Chebib et al., 2007, cited from earlier work; for Potency at GABAC relative to GABAA receptors / Potency at GABAC relative to GABAB receptors: ρ1 GABAC
# [5] = tested on: lens induced myopia in chick; details: negative lens, ref Schmid et al., 2004; cited from earlier work
# [6] = 10 mg/kg ip on D1, Trial 1, Day 1
# [7] = 10 mg/kg ip on D1, Trial 1, Day 2
# [8] = 30 mg/kg ip on D1, Trial 1, Day 1
# [9] = 30 mg/kg ip on D1, Trial 1, Day 2
# [10] = 100 mg/kg ip on D1, Trial 1, Day 1
# [11] = 100 mg/kg ip on D1, Trial 1, Day 2
# [12] = compound 30 μM co-applied with GABA (1 μM)
# Chain of human ρ1 GABAC receptors (P24046 22-479): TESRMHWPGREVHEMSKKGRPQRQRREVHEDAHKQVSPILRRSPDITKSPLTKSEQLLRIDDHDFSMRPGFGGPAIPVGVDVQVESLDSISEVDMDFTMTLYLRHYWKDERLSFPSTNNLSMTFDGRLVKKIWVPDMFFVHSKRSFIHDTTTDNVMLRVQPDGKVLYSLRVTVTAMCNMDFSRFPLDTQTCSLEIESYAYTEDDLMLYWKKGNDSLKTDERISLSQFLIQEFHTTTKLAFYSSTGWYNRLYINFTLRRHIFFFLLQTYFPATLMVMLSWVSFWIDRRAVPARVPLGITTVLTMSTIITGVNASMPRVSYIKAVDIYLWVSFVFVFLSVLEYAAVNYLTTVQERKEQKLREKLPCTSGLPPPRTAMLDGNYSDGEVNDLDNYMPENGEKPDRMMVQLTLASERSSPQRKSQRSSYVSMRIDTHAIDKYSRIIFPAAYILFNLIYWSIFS
# Chain of human ρ2 GABAC receptors (P28476 21-465): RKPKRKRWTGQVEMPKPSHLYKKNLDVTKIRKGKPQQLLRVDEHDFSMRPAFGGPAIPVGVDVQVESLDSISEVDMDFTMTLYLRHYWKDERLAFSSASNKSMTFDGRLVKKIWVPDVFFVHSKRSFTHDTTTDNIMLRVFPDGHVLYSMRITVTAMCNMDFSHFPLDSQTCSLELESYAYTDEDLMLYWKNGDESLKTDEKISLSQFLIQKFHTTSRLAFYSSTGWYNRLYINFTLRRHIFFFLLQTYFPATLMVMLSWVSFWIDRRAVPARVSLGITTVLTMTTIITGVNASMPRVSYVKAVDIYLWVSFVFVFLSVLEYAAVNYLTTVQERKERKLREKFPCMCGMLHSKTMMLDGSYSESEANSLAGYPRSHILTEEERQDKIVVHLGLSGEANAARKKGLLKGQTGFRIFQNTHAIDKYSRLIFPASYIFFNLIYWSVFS
compound,measurement,setting,value
"CCCCP(=O)(O)[C@H]1CC[C@@H](N)C1 (relative stereo) [cis-3-ACPBPA, cis-(3-aminocyclopentanyl)butylphosphinic acid]",Axial expansion (interocular difference),[1],0.17±0.17 mm
same,"Myopia (refractive error, interocular difference)",[1],−2.3±2.6 D
same,Axial expansion reduction,[1],70%
same,Myopia reduction,[1],80%
same,Dose required to inhibit a similar degree of lens-induced myopia (>80%),"[1]; intravitreal, chick",35 nmol
same,"Median time to reach platform, D1",male Wistar rats; [6],59 s
same,"Behavior in pool, D1",male Wistar rats; [6],3
same,"Number to reach platform, D1",male Wistar rats; [6],5
same,"Median time to reach platform, D2",male Wistar rats; [7],71 s
same,"Behavior in pool, D2",male Wistar rats; [7],4
same,"Number to reach platform, D2",male Wistar rats; [7],8
same,"Median time to reach platform, D1",male Wistar rats; [8],31 s
same,"Behavior in pool, D1",male Wistar rats; [8],"4 ^*, 4"
same,"Number to reach platform, D1",male Wistar rats; [8],7
same,"Median time to reach platform, D2",male Wistar rats; [9],35 s
same,"Behavior in pool, D2",male Wistar rats; [9],"4 ^*, 4"
same,"Number to reach platform, D2",male Wistar rats; [9],9
same,"Median time to reach platform, D1",male Wistar rats; [10],85 s
same,"Behavior in pool, D1",male Wistar rats; [10],3
same,"Number to reach platform, D1",male Wistar rats; [10],5
same,"Median time to reach platform, D2",male Wistar rats; [11],71 s
same,"Behavior in pool, D2",male Wistar rats; [11],4
same,"Number to reach platform, D2",male Wistar rats; [11],6
same,Overt acute toxicity,male QS mice,No overt acute toxicity
same,IC50,"human ρ2 GABAC receptors; read-out: GABAC ρ2 IC50, GABA 1 μM, n=4",11.1 µM
same,Mode of antagonism at ρ1 GABAC receptors,human ρ1 GABAC receptors,competitive antagonists
same,Potency at GABAC relative to GABAA or GABAB receptors,human ρ1 GABAC receptors; GABAC versus GABAA or GABAB,over 100 times
same,Effect when applied alone at ρ1 GABAC receptors,human ρ1 GABAC receptors,no effect alone
same,Inhibition of the GABA response at ρ1 GABAC receptors,human ρ1 GABAC receptors; compound 40 μM co-applied with GABA (1 μM),completely inhibited
same,IC50,"human ρ1 GABAC receptors; read-out: GABAC ρ1 IC50, GABA 1 μM, n=4",5.06 µM
same,Potency relative to the trans analog at the ρ1 and ρ2 GABAC receptors,human ρ1 GABAC receptors; ρ1 and ρ2 GABAC receptors,approximately 15 times
same,Percentage inhibition of GABA response at GABAA(α1β2γ2L),[2],33±3%
same,Response when applied alone (agonist effect) at GABAA(α1β2γ2L),[2],no response alone
same,"Percentage inhibition of GABA response at GABAB(1b,2)",[3],27±3%
same,"Response when applied alone (agonist effect) at GABAB(1b,2)",[3],No response
same,Hill coefficient,[4],0.97
same,IC50,"[4]; read-out: IC50 at native GABAC receptor, n=6",47 ± 4.5 µM
"CP(=O)(O)[C@H]1CC[C@@H](N)C1 (relative stereo) [cis-3-ACPMPA, cis-(3-aminocyclopentanyl)methylphosphinic acid]",Mode of antagonism at GABAC receptors,ρ1 GABAC receptors,competitive antagonists
same,Potency at GABAC relative to GABAA receptors,ρ1 GABAC receptors,greater than 100 times
same,Potency at GABAC relative to GABAB receptors,ρ1 GABAC receptors,50 times
"CCCCP(=O)(O)CCCN [CGP36742, (3-aminopropyl)-n-butylphosphinic acid]",Dose inhibiting a similar degree of lens-induced myopia,[5],280 nmol
"CP(=O)(O)C1=CCNCC1 [TPMPA, (1,2,5,6-tetrahydropyridin-4-yl)methylphosphinic acid, reference compound]",Inhibition of the GABA response at ρ1 GABAC receptors,human ρ1 GABAC receptors; [12],completely inhibited
same,Dose inhibiting a similar degree of lens-induced myopia,[5],70 nmol
"CN1[C@@H]2C[C@@H](OC(=O)[C@H](CO)c3ccccc3)C[C@H]1[C@@H]1O[C@@H]12 [scopolamine, reference compound]",Time taken to find the platform,"male Wistar rats; 1 mg/kg ip, D1, versus vehicle",statistically significant increase
same,Behavior score,"male Wistar rats; 1 mg/kg ip, Trials 3 and 4 of D1, vehicle 6",3
"CCCCP(=O)(O)C1CCC(N)C1 (stereo not drawn) [trans-3-ACPBPA, trans-(3-aminocyclopentanyl)butylphosphinic acid]",Axial expansion (interocular difference),[1],0.15±0.15 mm
same,"Myopia (refractive error, interocular difference)",[1],−3.1±2.8 D
same,Axial expansion reduction,[1],74%
same,Myopia reduction,[1],74%
same,"Median time to reach platform, D1",male Wistar rats; [6],77 s
same,"Behavior in pool, D1",male Wistar rats; [6],3
same,"Number to reach platform, D1",male Wistar rats; [6],5
same,"Median time to reach platform, D2",male Wistar rats; [7],44 s
same,"Behavior in pool, D2",male Wistar rats; [7],4
same,"Number to reach platform, D2",male Wistar rats; [7],8
same,"Median time to reach platform, D1",male Wistar rats; [8],82 s
same,"Behavior in pool, D1",male Wistar rats; [8],3
same,"Number to reach platform, D1",male Wistar rats; [8],5
same,"Median time to reach platform, D2",male Wistar rats; [9],47 s
same,"Behavior in pool, D2",male Wistar rats; [9],5
same,"Number to reach platform, D2",male Wistar rats; [9],8
same,"Median time to reach platform, D1",male Wistar rats; [10],61 s
same,"Behavior in pool, D1",male Wistar rats; [10],4
same,"Number to reach platform, D1",male Wistar rats; [10],6
same,"Median time to reach platform, D2",male Wistar rats; [11],28 s
same,"Behavior in pool, D2",male Wistar rats; [11],6
same,"Number to reach platform, D2",male Wistar rats; [11],9
same,Overt acute toxicity,male QS mice,No overt acute toxicity
same,IC50,human ρ2 GABAC receptors,190 µM
same,IC50,human ρ1 GABAC receptors,72.6 µM
same,Mode of antagonism at ρ1 GABAC receptors,human ρ1 GABAC receptors,competitive antagonists
same,Effect when applied alone at ρ1 GABAC receptors,human ρ1 GABAC receptors,no effect alone
same,Inhibition of the GABA response at ρ1 GABAC receptors,human ρ1 GABAC receptors; [12],70%
same,Percentage inhibition of GABA response at GABAA(α1β2γ2L),[2],28±5%
same,Response when applied alone (agonist effect) at GABAA(α1β2γ2L),[2],no response alone
same,"Percentage inhibition of GABA response at GABAB(1b,2)",[3],35±5%
same,"Response when applied alone (agonist effect) at GABAB(1b,2)",[3],No response
trans-(3-aminocyclopentanyl)methylphosphinic acid [trans-3-ACPMPA],Mode of antagonism at GABAC receptors,ρ1 GABAC receptors,competitive antagonists
same,Potency at GABAC relative to GABAA receptors,ρ1 GABAC receptors,greater than 100 times
same,Potency at GABAC relative to GABAB receptors,ρ1 GABAC receptors,50 times
